Assay [1] concerns choline oxidase. The assay is classed as biochemical. The protocol: (§1) Enzymatic activity (U/ml)=ΔA/min.×10.17×dilution ratio
Various substances were added to the reaction mixture to be used for the determination of enzymatic activity as described in the above (2) and the inhibitory effects were examined.

The target in assay [2] is T1, choline oxidase (authentic sample S) (Saccharopolyspora hirsuta, UniProt A0A5M7BLR6).
T1 sequence (A0A5M7BLR6 1-515): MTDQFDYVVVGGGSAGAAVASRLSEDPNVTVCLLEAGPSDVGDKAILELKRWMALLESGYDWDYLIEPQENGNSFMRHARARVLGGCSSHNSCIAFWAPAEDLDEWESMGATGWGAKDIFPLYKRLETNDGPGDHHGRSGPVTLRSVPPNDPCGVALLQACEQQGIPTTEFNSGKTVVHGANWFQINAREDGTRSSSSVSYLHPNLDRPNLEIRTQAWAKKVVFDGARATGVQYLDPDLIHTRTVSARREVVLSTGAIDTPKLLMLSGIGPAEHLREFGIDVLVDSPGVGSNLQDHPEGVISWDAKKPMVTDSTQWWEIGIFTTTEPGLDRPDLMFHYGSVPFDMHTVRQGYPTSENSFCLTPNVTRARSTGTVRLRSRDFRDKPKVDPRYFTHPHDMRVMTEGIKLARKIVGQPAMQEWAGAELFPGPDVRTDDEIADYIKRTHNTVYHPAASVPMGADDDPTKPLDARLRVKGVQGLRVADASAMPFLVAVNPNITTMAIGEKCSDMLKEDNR
To be noted: authentic sample S (Example 11).
Protocol: (§2) A peroxidase (obtained from horse radish, 100 units/mg, Type I, Sigma Chemical Co., U.S.A.) is dissolved in the above mixture to obtain a reaction mixture. The reaction mixture (3.0 ml) is placed in a cuvette (d=1.0 cm) and subjected to pre-heating at 37° C. for 5 minutes. Then, the changes of absorbance at 500 nm at 37° C. are recorded by an autographic recording spectrophotometer (UV-260 Type, Shimadzu Seisakusho, Ltd.) and the changes of absorbance per minute (ΔA/min.) from the initial straight line portion are determined. The enzymatic activity is calculated by the following formula:

For assay [3], the system named is choline oxidase. The assay is described as follows: Substrate specificity of choline oxidase (authentic sample of Example 1). The assay is classed as biochemical, Streptomyces thermoluteus subsp. fuscus C-19. To be noted: substrate used in place of choline chloride; relative to choline; enzyme of Example 1; Tris-HCl pH 8.0, 37° C. The protocol:
as §1
According to the above determination method of enzymatic activity, various substrates shown in Table 2 were used in place of choline chloride in the reaction mixture, their relative activities to choline were determined. As the enzyme, the authentic sample obtained in Example 1 hereinafter was employed.

The subject of assay [4] is choline oxidase (authentic sample T). To be noted: authentic sample T (Example 10).
Protocol: as §2
The mark [5] stands for this setting: additive 5 mM, without addition = 100.
The mark [6] stands for this setting: additive 1.0 mM, without addition = 100.

Where two headings read alike, the source gives them in different places.

For `[Ba+2].[Cl-].[Cl-]` [BaCl2], the “Relative Activity (%)” value in the assay with choline oxidase [1] (setting [5]) is 100%. `C[N+](C)(C)CC=O` [Betaine aldehyde]: the “reactivity of the enzyme to the substrate” value in assay [2] and in assay [4] was “showed reactivity” in each case. Also, in the assay with choline oxidase [3], the “Relative Activity (%)” value amounted to 41.9%. As for `[Ca+2].[Cl-].[Cl-]` [CaCl2], the “Relative Activity (%)” value in the assay on choline oxidase [1] (setting [5]) came out at 100%. Same read-out and setting: as for `[Cl-].[Cl-].[Co+2]` [CoCl2], the figure is 36.9%. Take `OCCNCCO` [Diethanolamine]: the “Relative Activity (%)” value in the assay with choline oxidase [3] came to 0%. Take `[Cl][Hg][Cl]` [HgCl2]: the “Relative Activity (%)” value in the assay on choline oxidase [1] (additive 0.05 mM, without addition = 100) is recorded as 83.3%; in the assay on choline oxidase [1] (additive 0.5 mM, without addition = 100), 60.1%; with choline oxidase [1] (setting [6]), 50.0%. Consider `[Cl-].[K+]` [KCl], for which the “Relative Activity (%)” value in the assay with choline oxidase [1] (setting [5]) turned out to be 98.0%. On the same count and under the same terms, as for `[Cl-].[Li+]` [LiCl], the figure is 100%; as for `[Cl-].[Cl-].[Mg+2]` [MgCl2], 93.8%. The same measure, in the same setting: the figure for `[Cl][Mn][Cl]` [MnCl2] is 100%. Regarding `[Cl][Mo]([Cl])([Cl])([Cl])[Cl]` [MoCl5], the “Relative Activity (%)” value in the assay with choline oxidase [1] (setting [6]) is recorded as 18.1%. For `NCCO` [Monoethanolamine], the “Relative Activity (%)” value in the assay on choline oxidase [3] is given as 0%.

In the case of `CNCCO` [N-methylaminoethanol], the “Relative Activity (%)” value with choline oxidase [3] is recorded as 0%. As for `Cl.N` [NH4 Cl], the “Relative Activity (%)” value in the assay with choline oxidase [1] (setting [5]) was 100%. Consider `[Cl-].[Na+]` [NaCl], for which the “Relative Activity (%)” value in the assay on choline oxidase [1] turned out to be 100%. For the molecule `[Cl-].[Cl-].[Zn+2]` [ZnCl2], the “Relative Activity (%)” value with choline oxidase [1] (setting [5]) came out at 82.9%.

Source of the values: US5079157A, “Novel choline oxidase and method for producing the same” (priority 1988, dated 1992).
